Source: patent US20250230193A1, “CYCLIC COMPOUND HAVING SELECTIVE KRAS INHIBITORY EFFECT ON HRAS AND NRAS” (CHUGAI SEIYAKU KABUSHIKI KAISHA, priority 2022, published 2025)
*1 amine or outer side, *2 acyl side, *3 side chain or, on linkers, in order; H or OH if unused. Where a SMILES comes first, the peptide text is derived from it. Bridges are numbered along the chain shown (N, C = ends). [ ]: non-standard residue; d: D form. The star is where a group is joined. hPhe(3-Cl-4-CF3) = N[C@@H](CCc1ccc(C(F)(F)F)c(Cl)c1)C(=O)O; NPrPhe(4-CF3) = CCCN[C@@H](Cc1ccc(C(F)(F)F)cc1)C(=O)O; NEtAsp = CCN([C@@H](CC(=O)[*:3])C(=O)[*:2])[*:1]; NMeGly(cPent) = CN[C@H](C(=O)O)C1CCCC1; NMeL = CN[C@@H](CC(C)C)C(=O)O; Morpholide = C1CN(*)CCO1; Ac5c = NC1(C(=O)O)CCCC1; Ac4c = NC1(C(=O)O)CCC1; Sar = CNCC(=O)O

Key:
[1] = target: GDP-bound NRAS wild-type protein (Homo sapiens, UniProt P01111); assay: Binding to NRAS by surface plasmon resonance (SPR), Single Cycle Kinetics; conditions: SPR
Chain of GDP-bound NRAS wild-type protein (P01111 whole entry): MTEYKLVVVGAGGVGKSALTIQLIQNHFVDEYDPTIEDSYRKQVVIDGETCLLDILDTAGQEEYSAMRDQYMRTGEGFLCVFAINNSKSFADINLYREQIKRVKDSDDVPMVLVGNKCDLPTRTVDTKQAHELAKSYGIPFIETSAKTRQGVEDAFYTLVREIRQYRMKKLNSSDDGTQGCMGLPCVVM

[2] = target: GDP-bound HRAS wild-type protein (Homo sapiens, UniProt P01112); assay: Binding to HRAS by surface plasmon resonance (SPR), Single Cycle Kinetics; conditions: SPR
Chain of GDP-bound HRAS wild-type protein (P01112 whole entry): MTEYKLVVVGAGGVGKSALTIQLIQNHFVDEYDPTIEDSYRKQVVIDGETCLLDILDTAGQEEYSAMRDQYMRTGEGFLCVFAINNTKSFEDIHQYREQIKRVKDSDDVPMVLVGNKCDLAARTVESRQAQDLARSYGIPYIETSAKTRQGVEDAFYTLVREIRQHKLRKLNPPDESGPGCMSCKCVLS

[3] = KD ratio, GDP-bound NRAS wild-type vs GDP-bound KRAS wild-type
[4] = KD ratio, GDP-bound HRAS wild-type vs GDP-bound KRAS wild-type
[5] = GDP-bound NRAS wild-type vs GDP-bound KRAS wild-type
[6] = GDP-bound HRAS wild-type vs GDP-bound KRAS wild-type

CC[C@H](C)[C@@H]1NC(=O)[C@H](COC)N(C)C(=O)C[C@@H](C(=O)N2CCOCC2)N(C)C(=O)[C@H](C2CCCC2)N(C)C(=O)C2(CCC2)NC(=O)[C@@H]2C[C@@H](OCC(C)C)CN2C(=O)[C@H](CCc2cc(F)c(C(F)(F)F)c(F)c2)NC(=O)CN(C)C(=O)[C@H](Cc2ccc(C(F)(F)F)cc2)N2CCCCC[C@@H](C2=O)N(C)C(=O)CN(C)C1=O [PP0839]
NRAS/KRAS (ratio of KD value with respect to NRAS to KD value with respect to KRAS) [1, 3]: B (a compound having 3 or more and less than 10 is denoted as B) | HRAS/KRAS (ratio of KD value with respect to HRAS to KD value with respect to KRAS) [2, 4]: B (a compound having 3 or more and less than 10 is denoted as B)

CC[C@H](C)[C@@H]1NC(=O)[C@H](CC)N(C)C(=O)C[C@@H](C(=O)N(C)C)N(C)C(=O)[C@H](C2CCCC2)N(C)C(=O)C2(CCC2)NC(=O)[C@@H]2COCCN2C(=O)[C@H](CCc2cc(F)c(C(F)(F)F)c(F)c2)NC(=O)CN(C)C(=O)[C@H](Cc2ccc(C(F)(F)F)cc2)N2CC/C=C\C[C@@H](C2=O)N(C)C(=O)CN(C)C1=O [PP1138]
NRAS/KRAS (ratio of KD value with respect to NRAS to KD value with respect to KRAS) [1, 3]: A (a compound having 10 or more and less than 20 is denoted as A) | HRAS/KRAS (ratio of KD value with respect to HRAS to KD value with respect to KRAS) [2, 4]: A (a compound having 10 or more and less than 20 is denoted as A)

CCCOC[C@H]1C(=O)N[C@@H]([C@@H](C)CC)C(=O)N2CCC[C@H]2C(=O)N(C)[C@H]2C/C=C\CCN(C2=O)[C@@H](CC2CCC(F)(F)CC2)C(=O)N(C)CC(=O)N[C@@H](CCc2ccc(C(F)(F)F)c(OC)c2)C(=O)N2C[C@@H](C)C[C@H]2C(=O)N(C)C2(CCC2)C(=O)N(C)[C@@H](C2CCCC2)C(=O)N(C)[C@H](C(=O)N(C)C)CC(=O)N1C [PP2381]
NRAS/KRAS (ratio of KD value with respect to NRAS to KD value with respect to KRAS) [1, 5]: A (a compound having 10 or more and less than 20 is denoted as A) | HRAS/KRAS (ratio of KD value with respect to HRAS to KD value with respect to KRAS) [2, 6]: A (a compound having 10 or more and less than 20 is denoted as A)

CCO[C@@H]1C[C@H]2C(=O)NC3(CCC3)C(=O)N(C)[C@@H](C3CCCC3)C(=O)N(CC)[C@H](C(=O)N3CCOCC3)CC(=O)N(C)[C@@H](COC)C(=O)N[C@@H]([C@@H](C)CC)C(=O)N(C)CC(=O)N(C)[C@H]3CCCCCN(C3=O)[C@@H](Cc3ccc(C(F)(F)F)cc3)C(=O)N(C)CC(=O)N[C@@H](CCc3cc(F)c(C(F)(F)F)c(F)c3)C(=O)N2C1 [PP0946]
NRAS/KRAS (ratio of KD value with respect to NRAS to KD value with respect to KRAS) [1, 3]: A (a compound having 10 or more and less than 20 is denoted as A) | HRAS/KRAS (ratio of KD value with respect to HRAS to KD value with respect to KRAS) [2, 4]: B (a compound having 3 or more and less than 10 is denoted as B)

CC[C@H](C)[C@@H]1NC(=O)[C@H](CC(C)C)N(CC)C(=O)C[C@@H](C(=O)N2CCOCC2)N(C)C(=O)[C@H](C2CCCC2)N(C)C(=O)C2(CCCC2)NC(=O)[C@@H]2CCCN2C(=O)[C@H](CCc2cc(F)c(C(F)(F)F)c(F)c2)NC(=O)CN(C)C(=O)[C@H](Cc2ccc(C(F)(F)F)cc2)N2CCCCC[C@@H](C2=O)N(C)C(=O)CN(C)C1=O [PP0513]
NRAS/KRAS (ratio of KD value with respect to GDP-bound NRAS wild-type protein to KD value with respect to KRAS) ([1]; KD ratio NRAS/KRAS): B (a compound having 3 or more and less than 10 is denoted as B) | HRAS/KRAS (ratio of KD value with respect to GDP-bound HRAS wild-type protein to KD value with respect to KRAS) ([2]; KD ratio HRAS/KRAS): B (a compound having 3 or more and less than 10 is denoted as B)

CCCO[C@H](C)[C@@H]1NC(=O)[C@H](CC(C)C)N(C)C(=O)C[C@@H](C(=O)N(C)C)N(C)C(=O)[C@H](C2CCCC2)N(C)C(=O)C2(CC(C)(C)C2)NC(=O)[C@@H]2C[C@H](C)CN2C(=O)[C@H](CCc2ccc(C(F)(F)F)c(OC)c2)NC(=O)CN(C)C(=O)[C@H](Cc2ccc(C)cc2)N2CC/C=C\C[C@@H](C2=O)N(C)C(=O)CN(C)C1=O [PP2415]
NRAS/KRAS (ratio of KD value with respect to NRAS to KD value with respect to KRAS) [1, 5]: AA (a compound having 20 or more is denoted as AA) | HRAS/KRAS (ratio of KD value with respect to HRAS to KD value with respect to KRAS) [2, 6]: A (a compound having 10 or more and less than 20 is denoted as A)

CCO[C@@H]1C[C@H]2C(=O)NC3(CCC3)C(=O)N(C)[C@@H](C3CCCC3)C(=O)N(C)[C@H](C(=O)N(C)C)CC(=O)N(C)[C@@H](Cc3cccc(C#N)c3)C(=O)N[C@@H]([C@@H](C)CC)C(=O)N(C)CC(=O)N(C)[C@H]3CCCCCN(C3=O)[C@@H](Cc3ccc(F)cc3)C(=O)N(C)CC(=O)N[C@@H](CCc3cc(F)c(C(F)(F)F)c(F)c3)C(=O)N2C1 [PP1156]
NRAS/KRAS (ratio of KD value with respect to NRAS to KD value with respect to KRAS) [1, 3]: B (a compound having 3 or more and less than 10 is denoted as B) | HRAS/KRAS (ratio of KD value with respect to HRAS to KD value with respect to KRAS) [2, 4]: B (a compound having 3 or more and less than 10 is denoted as B)

CC[C@H](C)[C@@H]1NC(=O)[C@H](C)N(C)C(=O)C[C@@H](C(=O)N(C)C)N(C)C(=O)[C@H](C2CCCC2)N(C)C(=O)C2(CCCC2)NC(=O)[C@@H]2CC(F)(F)CN2C(=O)[C@H](CCc2cc(F)c(C(F)(F)F)c(F)c2)NC(=O)CN(C)C(=O)[C@H](Cc2ccc(C(F)(F)F)cc2)N2CCCC[C@@H](C2=O)N(C)C(=O)CN(C)C1=O [PP0583]
NRAS/KRAS (ratio of KD value with respect to GDP-bound NRAS wild-type protein to KD value with respect to KRAS) ([1]; KD ratio NRAS/KRAS): C (A compound having a KD ratio of 0.1 or more and less than 3 is denoted as C) | HRAS/KRAS (ratio of KD value with respect to GDP-bound HRAS wild-type protein to KD value with respect to KRAS) ([2]; KD ratio HRAS/KRAS): C (A compound having a KD ratio of 0.1 or more and less than 3 is denoted as C)

CCCN1C(=O)CN(C)C(=O)CN(C)C(=O)[C@H]([C@@H](C)CC)NC(=O)[C@H](CC(C)C)N(C)C(=O)C[C@@H](C(=O)N2CCOCC2)NC(=O)[C@H](C2CCCC2)N(C)C(=O)C2(CCCC2)NC(=O)[C@@H]2CCCN2C(=O)[C@H](CCc2ccc(C(F)(F)F)c(Cl)c2)NC(=O)CN(C)C(=O)[C@@H]1Cc1ccc(C(F)(F)F)cc1 [PP0146] ([NMeL]I[Sar][Sar][NPrPhe(4-CF3)][Sar][hPhe(3-Cl-4-CF3)]P[Ac5c][NMeGly(cPent)]D-Morpholide; lactam N-11)
NRAS/KRAS (ratio of KD for GDP-bound NRAS wild-type to KD for KRAS) ([1]; KD ratio NRAS/KRAS): B (a compound having 3 or more and less than 10 is denoted as B) | HRAS/KRAS (ratio of KD for GDP-bound HRAS wild-type to KD for KRAS) ([2]; KD ratio HRAS/KRAS): B (a compound having 3 or more and less than 10 is denoted as B)

CCCN1C(=O)CN(C)C(=O)CN(C)C(=O)[C@H]([C@@H](C)CC)NC(=O)[C@H](CC(C)C)N(C)C(=O)C[C@@H](C(=O)N(C)C)N(CC)C(=O)[C@H](C2CCCC2)N(C)C(=O)C2(CCC2)NC(=O)[C@@H]2CCCN2C(=O)[C@H](CCc2ccc(C(F)(F)F)c(Cl)c2)NC(=O)CN(C)C(=O)[C@@H]1Cc1ccc(C(F)(F)F)cc1 [PP1956] ([NMeL]I[Sar][Sar][NPrPhe(4-CF3)][Sar][hPhe(3-Cl-4-CF3)]P[Ac4c][NMeGly(cPent)][NEtAsp]-NMe2; lactam N-11)
NRAS/KRAS (ratio of KD value for NRAS to KD value for KRAS) [1, 3]: B (a compound having 3 or more and less than 10 is denoted as B) | HRAS/KRAS (ratio of KD value for HRAS to KD value for KRAS) [2, 4]: B (a compound having 3 or more and less than 10 is denoted as B)

CCC[C@H]1C(=O)N[C@@H]([C@@H](C)CC)C(=O)N(C2CC2)CC(=O)N(C)[C@H]2C/C=C\CCN(C2=O)[C@@H](Cc2ccc(C(F)(F)F)cc2)C(=O)N(C)CC(=O)N[C@@H](CCc2cc(F)c(C(F)(F)F)c(F)c2)C(=O)N2C[C@H](OCC)C[C@H]2C(=O)N(C)C2(CCC2)C(=O)N(C)[C@@H](C2CCCC2)C(=O)N(C)[C@H](C(=O)N2CCCCC2)CC(=O)N1C [PP3110]
NRAS/KRAS (ratio of KD value with respect to GDP-bound NRAS wild-type protein to KD value with respect to KRAS) ([1]; KD ratio NRAS/KRAS, GDP-bound wild-type proteins): A (a compound having 10 or more and less than 20 is denoted as A) | HRAS/KRAS (ratio of KD value with respect to GDP-bound HRAS wild-type protein to KD value with respect to KRAS) ([2]; KD ratio HRAS/KRAS, GDP-bound wild-type proteins): A (a compound having 10 or more and less than 20 is denoted as A)

CCO[C@@H]1C[C@H]2C(=O)NC3(CCCC3)C(=O)N(C)[C@@H](C3CCCC3)C(=O)N(C)[C@H](C(=O)N(C)C)CC(=O)N(C)[C@@H](CC(C)C)C(=O)N[C@@H]([C@@H](C)CC)C(=O)N(C)CC(=O)N(C)[C@H]3CCCCN(C3=O)[C@@H](Cc3ccc(C(F)(F)F)cc3)C(=O)N(C)CC(=O)N[C@@H](CCc3cc(F)c(C(F)(F)F)c(F)c3)C(=O)N2C1 [PP0579]
NRAS/KRAS (ratio of KD value with respect to GDP-bound NRAS wild-type protein to KD value with respect to KRAS) ([1]; KD ratio NRAS/KRAS): C (A compound having a KD ratio of 0.1 or more and less than 3 is denoted as C) | HRAS/KRAS (ratio of KD value with respect to GDP-bound HRAS wild-type protein to KD value with respect to KRAS) ([2]; KD ratio HRAS/KRAS): B (a compound having 3 or more and less than 10 is denoted as B)

CCO[C@@H]1C[C@H]2C(=O)NC3(CCC3)C(=O)N(C)[C@@H](C3CCCC3)C(=O)N(CC)[C@H](C(=O)N3CCOCC3)CC(=O)N(C)[C@@H](CC(C)C)C(=O)N[C@@H]([C@@H](C)CC)C(=O)N(C)CC(=O)N(C)[C@H]3CCCCCN(C3=O)[C@@H](Cc3ccc(C(F)(F)F)cc3)C(=O)N(C)CC(=O)N[C@@H](CCc3cc(F)c(C(F)(F)F)c(F)c3)C(=O)N2C1 [PP0638]
NRAS/KRAS (ratio of KD value with respect to GDP-bound NRAS wild-type protein to KD value with respect to KRAS) ([1]; KD ratio NRAS/KRAS): B (a compound having 3 or more and less than 10 is denoted as B) | HRAS/KRAS (ratio of KD value with respect to GDP-bound HRAS wild-type protein to KD value with respect to KRAS) ([2]; KD ratio HRAS/KRAS): B (a compound having 3 or more and less than 10 is denoted as B)

CC[C@H](C)[C@@H]1NC(=O)[C@H](CC(C)C)N(C)C(=O)C[C@@H](C(=O)N(C)C)N(CCC2CCCC2)C(=O)[C@H](C2CCCC2)N(C)C(=O)C2(CCC2)NC(=O)[C@@H]2CC(F)(F)CN2C(=O)[C@H](CCc2ccc(C(F)(F)F)c(Cl)c2)NC(=O)CN(C)C(=O)[C@H](Cc2ccc(F)cc2)N2CCCCC[C@@H](C2=O)N(C)C(=O)CN(C)C1=O [PP0977]
NRAS/KRAS (ratio of KD value with respect to NRAS to KD value with respect to KRAS) [1, 3]: B (a compound having 3 or more and less than 10 is denoted as B) | HRAS/KRAS (ratio of KD value with respect to HRAS to KD value with respect to KRAS) [2, 4]: A (a compound having 10 or more and less than 20 is denoted as A)
